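96-well plates; 48 h exposure; 5 concentrations. Endpoints by linear interpolation between flanking doses. Not reached: highest tested concentration assigned. Here, GI50 denotes the concentration required for 50% inhibition of growth.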 Calls of active or inactive are those of the source. Rule as the data show it: active = GI50 up to about 1.1 µM and inactive = higher.
Assays:
Experiment in all cases: NCI anticancer screen, dose series, 48 h
COLO 205 = test system: COLO 205
NCI-H522 = test system: NCI-H522
RPMI-8226 = test system: RPMI-8226
MOLT-4 = test system: MOLT-4
KM12 = test system: KM12
HCT-15 = test system: HCT-15
U-251 = test system: U-251
OVCAR-3 = test system: OVCAR-3
NCI-H460 = test system: NCI-H460
786-0 = test system: 786-0
SF-295 = test system: SF-295
KM-20L2 = test system: KM-20L2
A498 = test system: A498
SR = test system: SR
HCC 2998 = test system: HCC 2998
UACC-62 = test system: UACC-62
EKVX = test system: EKVX
Malme-3M = test system: Malme-3M
SW-620 = test system: SW-620
SNB-75 = test system: SNB-75
OVCAR-5 = test system: OVCAR-5
SK-OV-3 = test system: SK-OV-3
HT-29 = test system: HT-29
TK-10 = test system: TK-10
IGROV-1 = test system: IGROV-1
NCI-H226 = test system: NCI-H226
OVCAR-8 = test system: OVCAR-8
A549 = test system: A549
M14 = test system: M14
HOP-62 = test system: HOP-62
LXFL 529 = test system: LXFL 529
DMS-114 = test system: DMS-114
SN12C = test system: SN12C
HOP-18 = test system: HOP-18
LOX IMVI = test system: LOX IMVI
SNB-19 = test system: SNB-19
SK-MEL-2 = test system: SK-MEL-2
UACC-257 = test system: UACC-257
SK-MEL-5 = test system: SK-MEL-5
HOP-92 = test system: HOP-92
SNB-78 = test system: SNB-78
RXF 393 = test system: RXF 393
SF-539 = test system: SF-539
CAKI-1 = test system: CAKI-1
OVCAR-4 = test system: OVCAR-4
NCI-H23 = test system: NCI-H23
UO-31 = test system: UO-31
DMS-273 = test system: DMS-273
CCRF-CEM = test system: CCRF-CEM
HCT-116 = test system: HCT-116
DLD-1 = test system: DLD-1
SK-MEL-28 = test system: SK-MEL-28
ACHN = test system: ACHN
HL-60 = test system: HL-60
SF-268 = test system: SF-268
K562 = test system: K562
M19-MEL = test system: M19-MEL

**Q.** Which GI50 (COLO 205) does the source give for CNC(C)Cc1ccccc1O (stereo unspecified) here?
**A.** > 100 µM (inactive)

**Q.** What about the GI50 (NCI-H522) of the same molecule?
**A.** > 100 µM (inactive)

**Q.** And the GI50 (RPMI-8226)?
**A.** > 100 µM (inactive)

**Q.** What about the GI50 (MOLT-4) of the same molecule?
**A.** > 100 µM (inactive)

**Q.** And the GI50 (KM12)?
**A.** > 100 µM (inactive)

**Q.** And the GI50 (HCT-15)?
**A.** 8.71 µM

**Q.** What about the GI50 (U-251) of the same molecule?
**A.** > 100 µM (inactive)

**Q.** What about the GI50 (OVCAR-3) of the same molecule?
**A.** > 100 µM (inactive)

**Q.** And the GI50 (NCI-H460)?
**A.** > 100 µM (inactive)

**Q.** What about the GI50 (786-0) of the same molecule?
**A.** > 100 µM (inactive)

**Q.** And the GI50 (SF-295)?
**A.** > 100 µM (inactive)

**Q.** What about the GI50 (KM-20L2) of the same molecule?
**A.** > 100 µM (inactive)

**Q.** And the GI50 (A498)?
**A.** > 100 µM (inactive)

**Q.** What about the GI50 (SR) of the same molecule?
**A.** > 100 µM (inactive)

**Q.** And the GI50 (HCC 2998)?
**A.** > 100 µM (inactive)

**Q.** What about the GI50 (UACC-62) of the same molecule?
**A.** > 100 µM (inactive)

**Q.** And the GI50 (EKVX)?
**A.** > 100 µM (inactive)

**Q.** What about the GI50 (Malme-3M) of the same molecule?
**A.** > 100 µM (inactive)

**Q.** And the GI50 (SW-620)?
**A.** > 100 µM (inactive)

**Q.** And the GI50 (SNB-75)?
**A.** > 100 µM (inactive)

**Q.** And the GI50 (OVCAR-5)?
**A.** > 100 µM (inactive)

**Q.** What about the GI50 (SK-OV-3) of the same molecule?
**A.** > 100 µM (inactive)

**Q.** And the GI50 (HT-29)?
**A.** > 100 µM (inactive)

**Q.** What about the GI50 (TK-10) of the same molecule?
**A.** > 100 µM (inactive)

**Q.** And the GI50 (IGROV-1)?
**A.** > 100 µM (inactive)

**Q.** What about the GI50 (NCI-H226) of the same molecule?
**A.** > 100 µM (inactive)

**Q.** What about the GI50 (OVCAR-8) of the same molecule?
**A.** > 100 µM (inactive)

**Q.** What about the GI50 (A549) of the same molecule?
**A.** > 100 µM (inactive)

**Q.** And the GI50 (M14)?
**A.** > 100 µM (inactive)

**Q.** And the GI50 (HOP-62)?
**A.** > 100 µM (inactive)

**Q.** What about the GI50 (LXFL 529) of the same molecule?
**A.** > 100 µM (inactive)

**Q.** What about the GI50 (DMS-114) of the same molecule?
**A.** > 100 µM (inactive)

**Q.** And the GI50 (SN12C)?
**A.** > 100 µM (inactive)

**Q.** And the GI50 (HOP-18)?
**A.** > 100 µM (inactive)

**Q.** What about the GI50 (LOX IMVI) of the same molecule?
**A.** > 100 µM (inactive)

**Q.** What about the GI50 (SNB-19) of the same molecule?
**A.** > 100 µM (inactive)

**Q.** What about the GI50 (SK-MEL-2) of the same molecule?
**A.** > 100 µM (inactive)

**Q.** And the GI50 (UACC-257)?
**A.** > 100 µM (inactive)

**Q.** What about the GI50 (SK-MEL-5) of the same molecule?
**A.** > 100 µM (inactive)

**Q.** What about the GI50 (HOP-92) of the same molecule?
**A.** > 100 µM (inactive)

**Q.** And the GI50 (SNB-78)?
**A.** > 100 µM (inactive)

**Q.** What about the GI50 (RXF 393) of the same molecule?
**A.** > 100 µM (inactive)

**Q.** What about the GI50 (SF-539) of the same molecule?
**A.** > 100 µM (inactive)

**Q.** And the GI50 (CAKI-1)?
**A.** > 100 µM (inactive)

**Q.** What about the GI50 (OVCAR-4) of the same molecule?
**A.** > 100 µM (inactive)

**Q.** And the GI50 (NCI-H23)?
**A.** > 100 µM (inactive)

**Q.** What about the GI50 (UO-31) of the same molecule?
**A.** > 100 µM (inactive)

**Q.** What about the GI50 (DMS-273) of the same molecule?
**A.** > 100 µM (inactive)

**Q.** And the GI50 (CCRF-CEM)?
**A.** > 100 µM (inactive)

**Q.** And the GI50 (HCT-116)?
**A.** > 100 µM (inactive)

**Q.** What about the GI50 (DLD-1) of the same molecule?
**A.** > 100 µM (inactive)

**Q.** And the GI50 (SK-MEL-28)?
**A.** > 100 µM (inactive)

**Q.** And the GI50 (ACHN)?
**A.** > 100 µM (inactive)

**Q.** What about the GI50 (HL-60) of the same molecule?
**A.** > 100 µM (inactive)

**Q.** What about the GI50 (SF-268) of the same molecule?
**A.** > 100 µM (inactive)

**Q.** What about the GI50 (K562) of the same molecule?
**A.** > 100 µM (inactive)

**Q.** What does the source list for COc1ccc(/C=C/C(=O)c2sc(N)nc2C)cc1?
**A.** GI50 (COLO 205): > 100 µM (inactive); GI50 (NCI-H522): > 100 µM (inactive); GI50 (RPMI-8226): > 100 µM (inactive); GI50 (MOLT-4): > 100 µM (inactive); GI50 (KM12): > 100 µM (inactive); GI50 (HCT-15): > 100 µM; GI50 (U-251): > 100 µM (inactive); GI50 (OVCAR-3): 41 µM (inactive); GI50 (NCI-H460): > 100 µM (inactive); GI50 (786-0): > 100 µM (inactive); GI50 (M19-MEL): > 100 µM (inactive); GI50 (SF-295): > 100 µM (inactive); GI50 (KM-20L2): > 100 µM (inactive); GI50 (A498): > 100 µM (inactive); GI50 (HCC 2998): > 100 µM (inactive); GI50 (UACC-62): > 100 µM (inactive); GI50 (EKVX): > 100 µM (inactive); GI50 (Malme-3M): > 100 µM (inactive); GI50 (SW-620): > 100 µM (inactive); GI50 (SNB-75): > 100 µM (inactive); GI50 (OVCAR-5): > 100 µM (inactive); GI50 (SK-OV-3): > 100 µM (inactive); GI50 (HT-29): > 100 µM (inactive); GI50 (TK-10): > 100 µM (inactive); GI50 (IGROV-1): > 100 µM (inactive); GI50 (OVCAR-8): > 100 µM (inactive); GI50 (A549): > 100 µM (inactive); GI50 (HOP-62): > 100 µM (inactive); GI50 (DMS-114): > 100 µM (inactive); GI50 (SN12C): > 100 µM (inactive); GI50 (HOP-18): > 100 µM (inactive); GI50 (LOX IMVI): > 100 µM (inactive); GI50 (SNB-19): > 100 µM (inactive); GI50 (SK-MEL-2): > 100 µM (inactive); GI50 (UACC-257): > 100 µM (inactive); GI50 (SK-MEL-5): > 100 µM (inactive); GI50 (HOP-92): > 100 µM (inactive); GI50 (SNB-78): > 100 µM (inactive); GI50 (RXF 393): > 100 µM (inactive); GI50 (SF-539): > 100 µM (inactive); GI50 (CAKI-1): > 100 µM (inactive); GI50 (NCI-H23): > 100 µM (inactive); GI50 (UO-31): > 100 µM (inactive); GI50 (DMS-273): > 100 µM (inactive); GI50 (CCRF-CEM): > 100 µM (inactive); GI50 (DLD-1): > 100 µM (inactive); GI50 (SK-MEL-28): > 100 µM (inactive); GI50 (HL-60): > 100 µM (inactive); GI50 (SF-268): > 100 µM (inactive); GI50 (K562): > 100 µM (inactive)

From ChEMBL document CHEMBL1201862, “PubChem BioAssay data set” (2004)
